Assay results as given in patent publication US20220142959A1, “LEUCINE, ACETYL LEUCINE, AND RELATED ANALOGS FOR TREATING DISEASE” (priority 2019, published 2022).

How the values were obtained:
[1] = tested on: rat model of an acute unilateral labyrinthectomy; details: activation of vestibulo-cerebellum, deactivation of posterolateral thalamus; cited from earlier work
[2] = tested on: cerebellar Purkinje cells; assay: Purkinje cell survival in Npc1−/− mice; type: in vivo; details: 59 days of age, compared to Npc1−/− UT
Description: FIG. 46 is an image showing cerebellar Purkinje cell loss progressing from anterior to posterior lobes and microglial activation in untreated Npc1^−/− mice and Npc1^−/− mice treated with ADLL, ALL, and ADL. Cerebellums were stained with calbindin-b (Purkinje cells) or CD68 (activated microglia).
FIG. 47 is a scatter graph showing Purkinje cell survival at 59 days of age in untreated Npc1^−/− mice and Npc1^−/− mice treated with ADLL, ALL, and ADL.
The combination of increased survival of neurons and a less inflammatory environment in the brain could improve brain function, quality of life, and delay the progression of disease in human subjects.

[3] = tested on: LC3-II and p62/SQSTM1; assay: Western blot of autophagy flux markers in cortex after CCI induced TBI; type: in vivo, mice
Procedure: (§1) Controlled cortical impact (CCI) induced TBI was performed in male C57BL6/J mice (20-25 g). Briefly, after a 10-mm midline incision was made over the skull, the skin and fascia were retracted, and a 4-mm craniotomy was made on the central aspect of the left parietal bone of mice under surgical anesthesia (2-3% isoflurane evaporated in a gas mixture containing 70% N20 and 30% 02). Moderate injury was induced in the exposed brain by a custom microprocessor-controlled and compressed air driven pneumatic impactor of 3.5 mm diameter tip with the impact velocity of 6 m/s and a deformation depth of 2 mm.
(§2) N-Acetyl-L-Leucine (“NAL” or “NALL”) was dissolved in ethanol to prepare a 50 mg/ml solution which was then diluted in water to give a 10 mg/ml solution. About 0.25 ml of the NAL solution (10 mg/ml) was orally administered in mice at a […] (2.5 mg NAL/25 g mouse) via oral gavage each day after CCI induced TBI for 4 days. Mice were also fed with NAL at 0.5 mg/kg chow powder chow mixed with diet gel for up to 7 days after injury.
(§3) Around 5 mm tissue of ipsilateral cortex around the site of injury from TBI mice or the corresponding tissue of same volume around the same cortical region from sham mice were dissected and processed. […] Protein bands were detected using chemiluminiscence kit (Pierce, 34076) and visualized using Chemi-doc system (Bio-Rad). Band intensity was analyzed using Image Lab software (Bio-Rad) and normalized to loading control (β-Actin). […]
Autophagy is a lysosome dependent cellular degradation process that is disrupted due to lysosomal damage after TBI. […] Whether attenuation of cell death following NALL treatment in TBI mice is mediated through the restoration of autophagy flux was assessed.
The levels of LC3-II and p62/SQSTM1 in the cortical tissue lysates prepared from vehicle and NAL fed naïve and TBI mice were determined by western blot analysis. A decrease in the levels of LC3-II in the brain of NALL fed mice as compared to vehicle treated mice at day 1 after TBI was detected. […]

[4] = tested on: TUNEL positive cells; assay: TUNEL assay on brain sections after CCI induced TBI; type: in vivo; details: injured mice fed with NALL vs vehicle fed TBI mice
Procedure: as §1, §2
The level of α-fodrin cleavage products in NALL treated, vehicle treated sham, and TBI mouse cortices were determined by Western blot analysis and using the TUNEL assay to assess whether NALL treatment decreases cortical cell death after TBI. […]

[5] = CCI induced TBI mice: food intake and body weight; type: in vivo; details: data not shown
Procedure: as §1, §2

[6] = tested on: rat primary cortical neurons; assay: U18666A-mediated impairment of lysosomal fusion in rat primary cortical neurons; type: cell-based; details: co-treated with U18666A (2 μg/mL) and compound 1 mM, 24 h
Procedure: (§4) FIG. 18. is a histogram of the ratio of LC3-II normalised to βIII tubulin (expressed as a percentage of untreated (n=1)) in rat primary cortical neurons that were treated with U18666A (2 μg/ml, 24 hr) in the absence or presence of ADLL, ALL, ADL, DLL, LL, DL, and LLE (1 mM, 24 hr).
as §4, with “19” for “18.”, “is” for “is a”, “APP-CTFs-6 and -7” for “LC3-II”, “their respective CTFs in untreated cells” for “βIII tubulin”, “(n=1)” for “(n=1))”
The efficacy of ADLL, ALL, ADL, DLL, LL, DL, and LLE in alleviating the U18666A-mediated impairment of autophagosome-lysosome fusion and endosomal lysosomal fusion was investigated. In this cell-based assay of impaired EAL flux, the reappearance of basal levels of APP CTFs-6 and -7, provided an indication of improved endosomal-lysosomal fusion.
Neurons were co-treated with U18666A (2 μg/mL) along with ADLL, ALL, ADL, DLL, LL, DL, and LLE (1 mM, 24 h).

[7] = tested on: α-fodrin; assay: Western blot of α-fodrin cleavage products in cortex after CCI induced TBI; type: in vivo, mice; details: NALL fed vs vehicle fed mouse cortices after TBI; oral gavage 10 mg/kg daily 4 days plus chow
Procedure: as §1, with “mm. […]” for “mm.”
The level of α-fodrin cleavage products in NALL treated, vehicle treated sham, and TBI mouse cortices were determined by Western blot analysis and using the TUNEL assay to assess whether NALL treatment decreases cortical cell death after TBI.
as §3

For `CC(=O)N[C@@H](CC(C)C)C(=O)O` [ALL, acetyl-L-leucine], the “effect on postural compensation” value [1] is given as “significant effect”, the “Purkinje cell survival in any cerebellar lobules” value [2] is given as “did not improve” and the “p62/SQSTM1 level in the cortex” value ([3]; NALL fed vs vehicle treated mice after TBI) is given as “decrease”. For the same molecule, the “levels of LC3-II in the brain” value ([3]; NALL fed vs vehicle treated mice, day 1 after TBI) was “decrease”, the autophagy flux ([3]; mouse cortices after TBI) was “improves autophagy flux” and the “TUNEL positive cells in brain sections” value [4] was “Lower levels”. The “change in body weight” value ([5]; NALL treated TBI mice) was “no appreciable change”, the food intake ([5]; sham vs TBI mice fed with NALL) was “No significant difference” and the “CTF-6 and -7 (endosomal-lysosomal fusion)” value [6] was “reappearance of basal amounts”. The LC3-II levels [6] was “lower than the basal levels” and the “level of 145-150 kDa fragments of α-fodrin” value [7] was “lower level”.
